For experiment [1], the system named is explants from the stomach tissue of a pale-skinned person. Briefly: Ex-vivo study: chromametric colour measurement (L, a, b) of skin explants. More on the design: species or system human; key to a / b: CIE L*a*b* colour coordinates (Minolta CR-300, D65). Conditions: for L / a / b: n=3, listed as P2. As to the method: 12 explants from the stomach tissue of a pale-skinned person (type) having an average diameter of 10 mm are prepared (reference: […]-AB49). The explants are kept in a BEM medium (BIO-EC's explants medium) at 37° C. in a moist atmosphere comprising 5% of CO2. The following samples are tested: (in each case 3 explants), where the solutions of the corresponding substances used comprise 90% of water and 10% of ethanol. […] 2 μl of the respective sample are added to the explants and distributed for the first time (DO), 1 day later (D1), 2 days later (D2), 3 days later (D3) and 4 days later (D4). The colour of the explants is determined chromametrically. The measurements are carried out on addition (DO), on day 1 (D1), on day 5 (D5) and on day 11 (D11). The colour measurements are carried out using a Minolta CR-300 Chroma-meter, and the L, a and b values are read off correspondingly on the instrument. […] A colour area is present here which is viewed at a viewing angle of 2 degrees. This viewing angle is used as standard in the chromametric measurement. • Irradiation source D65, corresponding to daylight • Region of the measurement: 3 mm • Parameters used: L* a* b* The sample is placed on the bearing rail with the epidermis facing downwards. The irradiation is carried out from the underside through the area indicated (3 mm). In the colorimetric determinations <L a b>, the L value determines the contrast of the skin. If the L value drops, the skin appears darker.

The subject of experiment [2] is B16V mouse melanoma cells. Kind of experiment: B16 V mouse melanoma cell test: melanin concentration after alpha-MSH stimulation. It is filed as cell-based. To be noted: for Relative melanin concentration (%): DMSO (0.1%) + α-MSH 10^-8 M, relative to blank DMSO + α-MSH = 100%. The procedure:
Description of the performance of the B16 V mouse melanoma cell test:
B16V mouse melanoma cells (manufacturer: DSMZ; Article No.: ACC370) in RPMI medium (Invitrogen, Article No.: 31870), to which 10% of FBS (foetal bovine serum, Invitrogen, Article No: 10499044), 2 mM L-glutamine (Invitrogen, Article No: 25030) and 1 mM sodium pyruvate (Invitrogen, Article No: 11360) had additionally been added (modified RPMI medium), are transferred into a culture bottle and incubated at 37° C. and 5% CO2 for 72 h. The medium is separated off, and the cells are washed with 10 ml of D-PBS (Invitrogen, Article No. 14190) and subsequently filtered off with suction. 1 ml of HyQtase cell detachment solution (Hyclone, Article No. SV30030.01) is added to the cells. The bottle is swirled a number of times, and the HyQtase cell detachment solution is subsequently removed by suction. The cells are then incubated in the incubator at 37° C. and 5% CO2for 5 min. The cells are taken up in the modified RPMI medium (Invitrogen, Article No.: 31870), and the cell count is determined. To this end, the cells are stained with Tryptan Blue and counted in a Neubauer chamber. The cells are subsequently sown out again in the modified RPMI medium in a defined cell count of 80,000 cells per well (6-well clear plate, TCT, PS (Nunc)).
The plate is subsequently incubated at 37° C. and 5% CO2 for 24 h, the medium is then removed. 1980 μl of the isomaltulose dilution are subsequently added. For this substance dilution, the isomaltulose is dissolved in DMSO and subsequently filtered through a sterile filter (0.2 μm, Millipore, Article No. SLLG013SL). The solution is then diluted with the modified RPMI medium (in this case the FBS content in the RPMI medium is only 5%) in such a way that the isomaltulose concentration is 1 mM or 5 mM. 20 μl of an alpha-MSH solution in DMSO (alpha-melanocyte-stimulating hormone=alpha-MSH) (DMSO, Sigma, Article No.:D2650) are then added, so that the alpha-MSH concentration in the well is 10^−8 M. The plate is subsequently incubated again at 37° C. and 5% CO2 for 24 h. […]
After the final incubation period, the medium is removed by suction, and the cells are washed with 1000 μl of D-PBS (Invitrogen, Article No. 14190). […] The cell count is subsequently determined. To this end, the cells are stained with Tryptan Blue and counted in a Neubauer chamber. […] 200 μl are then pipetted as quadruple determination (per cup) into a 96-well plate (VWR, Article No. 4100636981), and the absorption at a wavelength of 405 nm is determined. […] The content of melanin can be determined in this way by means of a calibration line.
The other values were determined relative to the blank sample with dimethyl sulfoxide (DMSO) and α-MSH, whose measurement was set at 100%

[3] abbreviates: D0 (on addition), single explant values.
Where [4] appears, read: D1, 2 μl sample applied D0-D4, single explant values.
The mark [5] stands for this setting: D5, 2 μl sample applied D0-D4, single explant values.
The mark [6] stands for this setting: D11, 2 μl sample applied D0-D4, single explant values.
Where [7] appears, read: in comparison with the untreated sample.

Results on 2 compounds are retold here after US20130108565A1, “TANNING ENHANCERS AND SELF-TANNING SUBSTANCES” (MERCK PATENT GESELLSCHAFT MIT BESCHRANKTER HAFTUNG, priority 2010, published 2013).

“And” between values parts separate entries of the source, which are not always exact repeats. Identical values can stand only once.

As to `OC[C@H]1O[C@H](OC[C@H]2OC(O)(CO)[C@@H](O)[C@@H]2O)[C@H](O)[C@@H](O)[C@@H]1O` (stereo partly drawn) [isomaltulose, α-D-glucopyranose-(1→6)-D-fructose (open, α- or (β-form) (isomaltulose)], the L in experiment [1] (setting [3]) was 62.89 and 62.96 and 61.62; in experiment [1] (setting [4]), 63.09 and 64.04 and 62.97; in experiment [1] (setting [5]), 63.79 and 62.89 and 63.61; in experiment [1] (setting [6]), 65.69 and 59.72 and 60.71. Also, the a is 2.75 and 2.19 and 3.28 in experiment [1] (setting [3]); 3.72 and 2.1 and 3.32 in experiment [1] (setting [4]); 2.57 and 2.67 and 3.26 in experiment [1] (setting [5]); 2.41 and 3.44 and 3.59 in experiment [1] (setting [6]). For the same compound, the b was 15.88 and 18.71 and 18.43 in experiment [1] (setting [3]); 16.05 and 17.73 and 17.92 in experiment [1] (setting [4]); 14.33 and 17.15 and 16.3 in experiment [1] (setting [5]); 12.35 and 11.35 and 11.57 in experiment [1] (setting [6]). Also, in experiment [1] (setting [7]), the “skin darkness (L values)” value is “darkening of the skin”. In addition, the “skin shade, red-brown shift (a value)” value in experiment [1] (setting [7]) is listed as “more natural skin shade”. Moreover, the figures for the “Relative melanin concentration (%)” value in experiment [2] (1 mM) and in experiment [2] (5 mM) were 65.0% and 58.1%, respectively. Also, the melanin production result in experiment [2] (cell culture tests with B16V mouse melanoma cells) was “reduces melanin production”.
As to `O=c1cc(CO)occ1O` [kojic acid, reference compound], the “Relative melanin concentration (%)” value in experiment [2] (1 mM) was 71.4%.
